Here are results for 25 molecules from US5496830A (Johns Hopkins University, priority 1994, dated 1996).

Each structure is given as a SMILES string. Read-outs that look alike come from different tables or passages of the source.

In assay [1] the test system is T. brucei brucei (MiTat 1.2, strain 427, variant 221). Kind of assay: In vitro inhibition of blood stream form trypanosomes, acid phosphatase detection of survivors. Conditions: Trypanosoma brucei, read-out: Trypanosome EC50. It counts as cell-based. The protocol:
Camptothecin compounds were tested against blood stream form trypanosomes in vitro. T. brucei brucei (MiTat 1.2, strain 427, variant 221) were cultured at 37° C. according to the methods of Carruthers and Cross (Carruthers, V. B., and Cross, G. A. M. (1992) Proc. Natl. Acad. Sci. USA., 89:8818-8821) with the substitution of phenol red-free Iscoves Modified Dulbecco's Medium (Mediatech, Inc.) in the HMI-9 culture medium. […] Exponentially growing trypanosomes were diluted to 10^5 cells/ml with prewarmed medium.
The plate was incubated at 37° C. for 24 h in a humidified incubator maintained with 5% CO2.
Surviving trypanosomes were detected by the acid phosphatase method (Martin, A. and Clynes, M. (1991) In Vitro Cell. Dev. Biol. 27A:183-184). p-Nitrophenol phosphate (20 μl of 20 mg/ml; solubilized in 1 M sodium acetate, pH 5.5; 1% Triton X-100) was added to each 200 μl sample and mixed. The plate was then incubated for 3-4 h at 37° C. The production of p-nitrophenol was measured at 405 nm on a microplate reader (UVmax kinetic microplate reader, Molecular Devices). Quadruplicate values were averaged and blanks (complete reaction mixture without trypanosomes) were subtracted for each drug concentration.

Assay [2] deals with T1, topoisomerase I (Homo sapiens, UniProt P11387).
T1 sequence (P11387 1-765): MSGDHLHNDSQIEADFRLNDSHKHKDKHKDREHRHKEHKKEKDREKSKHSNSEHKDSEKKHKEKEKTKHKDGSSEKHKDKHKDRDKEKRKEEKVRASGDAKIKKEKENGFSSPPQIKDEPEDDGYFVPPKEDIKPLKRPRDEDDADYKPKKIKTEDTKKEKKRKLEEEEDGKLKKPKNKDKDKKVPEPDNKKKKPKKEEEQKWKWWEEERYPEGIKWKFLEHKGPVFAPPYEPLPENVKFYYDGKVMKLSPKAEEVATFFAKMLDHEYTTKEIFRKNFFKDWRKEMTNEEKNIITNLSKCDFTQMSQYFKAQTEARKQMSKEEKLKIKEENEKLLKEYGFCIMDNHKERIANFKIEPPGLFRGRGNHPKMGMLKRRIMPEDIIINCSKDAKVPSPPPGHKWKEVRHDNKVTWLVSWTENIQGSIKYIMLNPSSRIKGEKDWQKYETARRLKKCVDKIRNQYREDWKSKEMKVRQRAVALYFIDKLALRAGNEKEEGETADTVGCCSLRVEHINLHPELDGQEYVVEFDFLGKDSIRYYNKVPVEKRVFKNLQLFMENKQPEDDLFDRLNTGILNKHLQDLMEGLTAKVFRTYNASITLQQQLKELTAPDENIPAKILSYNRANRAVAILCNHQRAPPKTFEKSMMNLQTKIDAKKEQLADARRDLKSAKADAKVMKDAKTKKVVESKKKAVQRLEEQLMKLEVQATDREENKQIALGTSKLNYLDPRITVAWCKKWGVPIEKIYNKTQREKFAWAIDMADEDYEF
Briefly: Topoisomerase I inhibition relative to 20(S)-camptothecin (separate independent experiments). The format is biochemical. To be noted: T1 relative to 20(S)CPT.

Assay [3] deals with T2, topoisomerase I (Bos taurus, UniProt F1MN93).
T2 sequence (F1MN93 1-767): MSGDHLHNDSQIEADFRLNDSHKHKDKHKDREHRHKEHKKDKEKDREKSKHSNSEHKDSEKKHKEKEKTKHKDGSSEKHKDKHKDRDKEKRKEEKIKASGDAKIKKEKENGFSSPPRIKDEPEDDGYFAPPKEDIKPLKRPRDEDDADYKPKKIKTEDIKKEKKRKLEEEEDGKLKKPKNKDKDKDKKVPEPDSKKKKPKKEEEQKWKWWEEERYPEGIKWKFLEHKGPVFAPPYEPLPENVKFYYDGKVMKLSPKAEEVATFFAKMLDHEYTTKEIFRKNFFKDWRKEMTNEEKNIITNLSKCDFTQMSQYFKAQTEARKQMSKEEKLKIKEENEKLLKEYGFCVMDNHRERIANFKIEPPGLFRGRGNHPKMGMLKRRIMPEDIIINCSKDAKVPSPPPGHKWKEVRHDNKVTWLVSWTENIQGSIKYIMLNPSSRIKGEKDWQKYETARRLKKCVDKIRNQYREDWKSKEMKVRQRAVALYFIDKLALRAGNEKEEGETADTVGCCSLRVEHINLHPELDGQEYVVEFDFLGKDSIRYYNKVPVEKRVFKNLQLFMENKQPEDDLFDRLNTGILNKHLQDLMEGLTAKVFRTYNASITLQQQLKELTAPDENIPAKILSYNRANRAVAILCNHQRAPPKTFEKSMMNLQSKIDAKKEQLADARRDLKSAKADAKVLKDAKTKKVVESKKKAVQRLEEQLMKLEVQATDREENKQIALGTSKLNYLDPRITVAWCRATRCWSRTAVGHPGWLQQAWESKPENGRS
Briefly: Topoisomerase I inhibition by the cleavable complex assay of Hsiang et al. The format is biochemical. Conditions: for T-1 Inhibition IC50: cleavable complex assay of Hsiang et al.

[4] abbreviates: blood stream form T. brucei, 24 h at 37° C., acid phosphatase method.

Turning to `CCC1(OC(=O)CN)C(=O)OCc2c1cc1n(c2=O)Cc2cc3cc4c(cc3nc2-1)OCO4` (racemic) [10,11-MD-20-Glycinate-20(RS)-CPT], the EC50 (usually the midpoint of the concentration-response curve) in assay [1] (setting [4]) worked out at 920 nM.
In the case of `CCc1c2c(nc3cccc(N)c13)-c1cc3c(c(=O)n1C2)COC(=O)[C@]3(O)CC` [7-Ethyl-9-amino-20(S)-CPT, 7-ethyl-9-amino-20(S)-camptothecin], the “Relative Potency T-1 Inhibition” value at topoisomerase I [2] was found to be 5. Also, the EC50 in assay [1] (24 h) is 910 nM.
For `CCc1c2c(nc3cccc([N+](=O)[O-])c13)-c1cc3c(c(=O)n1C2)COC(=O)[C@]3(O)CC` [7-Ethyl-9-nitro-20(S)-CPT, 7-ethyl-9-nitro-20(S)-camptothecin] the same measures were 4 and 2670 nM.
The corresponding values for `CCc1c2c(nc3cc4c(cc13)OCO4)-c1cc3c(c(=O)n1C2)COC(=O)[C@]3(O)CC` [7-Ethyl-10,11-methylenedioxy-20(S)-CPT, 7-ethyl-10,11-methylenedioxy-20(S)-camptothecin] are 12 and 60 nM.
For `CCc1c2c(nc3ccc(N)cc13)-c1cc3c(c(=O)n1C2)COC(=O)[C@]3(O)CC` [7-Ethyl-10-amino-20(S)-CPT, 7-ethyl-10-amino-20(S)-camptothecin] the same measures were 5 and 620 nM.
With `CCc1c2c(nc3ccc([N+](=O)[O-])cc13)-c1cc3c(c(=O)n1C2)COC(=O)[C@]3(O)CC` [7-Ethyl-10-nitro-20(S)-CPT, 7-ethyl-10-nitro-20(S)-camptothecin], the “Relative Potency T-1 Inhibition” value at topoisomerase I [2] was 4. For the same molecule, the EC50 in assay [1] (24 h) came to 600 nM.
The corresponding values for `CCc1c2c(nc3ccccc13)-c1cc3c(c(=O)n1C2)COC(=O)[C@]3(O)CC` [7-Ethyl-20(S)-CPT, 7-ethyl-20(S)-camptothecin] are 3 and 770 nM.
For `CC[C@@]1(O)C(=O)OCc2c1cc1n(c2=O)Cc2c-1nc1cc3c(cc1c2C)OCO3` [7-Methyl-10,11-methylenedioxy-20(S)-CPT, 7-methyl-10,11-methylenedioxy-20(S)-camptothecin] the same measures were 5 and 40 nM.
On to `CCCc1c2c(nc3ccccc13)-c1cc3c(c(=O)n1C2)COC(=O)[C@]3(O)CC` [7-Propyl-20(S)-CPT, 7-propyl-20(S)-camptothecin], for which, on topoisomerase I [2], the “Relative Potency T-1 Inhibition” value was 2. Further, in assay [1] (24 h), the EC50 was found to be 770 nM.
Take `CCc1c2c(nc3cc4c(c(N)c13)OCO4)-c1cc3c(c(=O)n1C2)COC(=O)[C@]3(O)CC` [7-ethyl-9-amino-10,11-methylenedioxy-20(S)-camptothecin]: the “Relative Potency T-1 Inhibition” value on topoisomerase I [2] stood at 10. In addition, the concentration giving a half-maximal response (EC50) in assay [1] (24 h) stood at 60 nM.
Turning to `CCc1c2c(nc3cc4c(c([N+](=O)[O-])c13)OCO4)-c1cc3c(c(=O)n1C2)COC(=O)[C@]3(O)CC` [7-ethyl-9-nitro-10,11-methylenedioxy-20(S)-camptothecin], the “Relative Potency T-1 Inhibition” value on topoisomerase I [2] was found to be 5. For the same molecule, in assay [1] (24 h), the EC50 is 210 nM.
Consider `CC[C@@]1(O)C(=O)OCc2c1cc1n(c2=O)Cc2cc3c(N)c4c(cc3nc2-1)OCO4` [9-Amino-10,11-MD-20(S)-CPT, 9-amino-10,11-methylenedioxy-20(S)-camptothecin], for which the IC50 (in general, the midpoint of a concentration-inhibition curve) against topoisomerase I [3] is 50 nM. Moreover, the half-maximal effective concentration (EC50) in assay [1] (24 h) is 180 nM.
Take `CC[C@@]1(O)C(=O)OCc2c1cc1n(c2=O)Cc2cc3c(N)cccc3nc2-1` [9-Amino-20(S)-CPT, 9-amino-20(S)-camptothecin]: the “Relative Potency T-1 Inhibition” value on topoisomerase I [2] worked out at 2. For the same molecule, in assay [1] (setting [4]), the concentration for a half-maximal effect (EC50) turned out to be 870 nM.
Take `CC[C@@]1(O)C(=O)OCc2c1cc1n(c2=O)Cc2cc3c(Cl)cccc3nc2-1` [9-Chloro-20(S)-CPT, 9-chloro-20(S)-camptothecin]: on topoisomerase I [3], the 50% inhibitory concentration (IC50) stood at 90 nM. The EC50 in assay [1] (24 h) came to 890 nM.
As to `CC[C@@]1(O)C(=O)OCc2c1cc1n(c2=O)Cc2cc3c([N+](=O)[O-])c4c(cc3nc2-1)OCO4` [9-Nitro-10,11-methylenedioxy-20(S)-CPT], the “Relative Potency T-1 Inhibition” value at topoisomerase I [2] came to 3. The EC50 in assay [1] (24 h) came out at 400 nM.
As for `CC[C@@]1(O)C(=O)OCc2c1cc1n(c2=O)Cc2cc3c([N+](=O)[O-])cccc3nc2-1` [9-Nitro-20(S)-CPT], the EC50 in assay [1] (setting [4]) was found to be 1640 nM.
Take `CC[C@@]1(O)C(=O)OCc2c1cc1n(c2=O)Cc2cc3cc4c(cc3nc2-1)OCO4` [10,11-MD-20(S)-CPT, 10,11-methylenedioxy-20(S)-camptothecin]: at topoisomerase I [3], the IC50 came to 30 nM. For the same molecule, at topoisomerase I [2], the “Relative Potency T-1 Inhibition” value is given as 10. In assay [1] (24 h), the EC50 was determined as 210 nM.
Turning to `CC[C@@]1(O)C(=O)OCc2c1cc1n(c2=O)Cc2cc3cc(N)ccc3nc2-1` [10-Amino-20(S)-CPT, 10-amino-20(S)-camptothecin], the “Relative Potency T-1 Inhibition” value at topoisomerase I [2] is listed as 2. The EC50 in assay [1] (24 h) was determined as 1200 nM.
Consider `CC[C@@]1(O)C(=O)OCc2c1cc1n(c2=O)Cc2cc3cc(Cl)ccc3nc2-1` [10-Chloro-20(S)-CPT, 10-chloro-20(S)-camptothecin], for which the concentration giving a half-maximal response (EC50) in assay [1] (24 h) came out at 1770 nM.
Still for that read-out and setting: the same measure for `CC[C@@]1(O)C(=O)OCc2c1cc1n(c2=O)Cc2cc3cc(C)ccc3nc2-1` [10-Methyl-20(S)-CPT]: 3140 nM; for `CC[C@@]1(O)C(=O)OCc2c1cc1n(c2=O)Cc2cc3cc([N+](=O)[O-])ccc3nc2-1` [10-Nitro-20(S)-CPT]: 1750 nM.
Take `CC[C@@]1(O)C(=O)OCc2c1cc1n(c2=O)Cc2cc3ccc(N)cc3nc2-1` [11-Amino-20(S)-CPT]: the “T-1 Inhibition IC50” value on topoisomerase I [3] was “inactive”. The EC50 in assay [1] (24 h) is 23100 nM.
The corresponding values for `CC[C@@]1(O)C(=O)OCc2c1cc1n(c2=O)Cc2cc3cccc(N)c3nc2-1` [12-Amino-20(S)-CPT] are “inactive” and 22500 nM.
With `CC[C@@]1(O)C(=O)OCc2c1cc1n(c2=O)Cc2cc3ccccc3nc2-1` [20(S)-CPT, 20(S)-camptothecin], the “Relative Potency T-1 Inhibition” value on topoisomerase I [2] is listed as 1. The EC50 in assay [1] (24 h) was determined as 1550 nM.
As for `CC[C@@]1(OC(=O)CN)C(=O)OCc2c1cc1n(c2=O)Cc2cc3ccccc3nc2-1` [20-Glycinate-20(S)-CPT], the EC50 in assay [1] (setting [4]) is 5100 nM.
